For 13 molecules, TGI and GI50 results are on record in PubChem BioAssay (NCI).

Broadly, the TGI is the concentration giving total growth inhibition. The low end stands for more potent growth arrest, the high end for less potent growth arrest. As a reminder, the GI50 is the concentration giving 50% growth inhibition.

What all share (assay): DTP human tumour cell line panel, 48 h
The subject of test [1] is SW-620 colon.
The subject of test [2] is M14 melanoma.
The test system of test [3] is SF-539 CNS.
Test [4] deals with K-562 leukemia.
Test [5] concerns ACHN renal.
Test [6] relates to SN12C renal.
In test [7] the test system is MALME-3M melanoma.
Test [8] relates to SNB-19 CNS.
Test [9] relates to OVCAR-5 ovarian.
Test [10] deals with UACC-257 melanoma.

Each structure is given as a SMILES string. Where “and” joins values, the source holds several entries; their conditions need not be identical. Identical values can stand only once.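 Each compound was tested at five concentrations against cells in 96-well plates for 48 hours. At the GI50, growth is halved. TGI: concentration producing complete growth inhibition.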

With `N=C(N)C(N=Nc1ccccc1)C(=N)N` (stereo unspecified), the TGI in [1] is above 100 µM; in [2] it was above 100 µM; in test [3], 38.5 µM; in test [4] it was 99.1 µM; in test [5] it was above 100 µM; in test [6] it was above 100 µM. Besides, the TGI in test [7], in test [8], in test [9] and in test [10] was above 100 µM throughout.

Consider `O=C1c2ccccc2-c2ccc(O)cc21`, for which the TGI in [1] is above 100 µM; in [2], 72.7 µM; in test [3], 52.8 µM; in test [4] it was 94.7 µM; in test [5], 33.2 µM; in test [6], 36.9 µM. The TGI in test [7] worked out at 49.2 µM; in test [8], 48.7 µM; in test [9], 68.5 µM; in test [10] it was 49.1 µM.

For the molecule `COC1(OC)C[C@H](C)[C@@]23O[C@]24c2cc(O)c5c(c2N[C@H]3C#C/C=C\C#C[C@]14O)C(=O)c1ccccc1C5=O`, the concentration for 50% growth inhibition (GI50) is 0.00373 µM in [1]; 0.00194 µM in [2]; below 0.001 µM in test [3]; 0.00399 µM in test [4]; below 0.001 µM in [7]; 0.0206 µM in test [9]. In addition, in [10], the GI50 was 0.00624 µM. For the same molecule, the concentration for total growth inhibition (TGI) was 0.167 µM and 0.215 µM in test [1]; 0.0176 µM and 0.0111 µM in test [2]; 0.00304 µM in [3]; 0.101 µM and 0.201 µM in [4]; 0.00979 µM in [6]; 0.225 µM in test [8]. Moreover, the TGI in test [9] is 0.169 µM and 0.111 µM; in test [10] it was 0.0789 µM and 0.0505 µM.

As to `CCC(C)C(NC(=O)C(CCCCN)NC(=O)C(NC(=O)C(CCC(N)=O)NC(=O)C(CCCNC(=N)N)NC(C)=O)C(C)CC)C(=O)NC(Cc1c[nH]c2ccccc12)C(=O)NC(Cc1ccccc1)C(=O)NC(CCC(N)=O)C(=O)NC(CC(N)=O)C(=O)NC(CCCNC(=N)N)C(=O)NC(CCCNC(=N)N)C(=O)NC(CCSC)C(=O)NC(CCCCN)C(=O)NC(Cc1c[nH]c2ccccc12)C(=O)NC(CCCCN)C(=O)NC(CCCCN)C(N)=O` (stereo unspecified), the TGI in test [1], in test [2], in test [3], in [4], in test [5] and in test [6] was above 50 µM throughout. Further, the TGI was above 50 µM in test [7], above 50 µM in test [8], 22.5 µM in [9] and above 50 µM in [10].

For the molecule `O=C1OC(c2ccccc2)=N/C1=C/c1cccs1`, the total growth inhibition concentration (TGI) in test [1], in [2], in test [3], in [4], in test [5] and in test [8] was above 100 µM in each case. The TGI in test [9] and in test [10] was above 100 µM each time.

As to `CC(=O)C1=C(O)C2(O)C(=O)c3c(c(C)c4ccc(C)c(O)c4c3O)CC2C(N)C1=O` (stereo unspecified), the TGI turned out to be 23.6 µM in test [1]; 23.1 µM in [2]; 14.8 µM in test [3]; 12.2 µM in test [4]; 7.19 µM in test [5]; 9.79 µM in [6]. Besides, the TGI in [7] was 4.74 µM; in test [8], 23.9 µM; in test [9], 14 µM; in test [10], 11.9 µM.

`Cc1nc(Cl)c(C)c(Cl)n1`: the TGI in test [1] is above 100 µM; in test [2] it was above 100 µM; in [3], above 100 µM; in test [4] it was above 91.9 µM; in [5] it was above 100 µM; in [6] it was above 100 µM. Further, the TGI in [7], in test [8], in test [9] and in [10] was above 100 µM throughout.

For the molecule `S=C(NCCCCCCNC(=S)Nc1c2ccccc2nc2ccccc12)Nc1c2ccccc2nc2ccccc12`, the TGI is above 100 µM in test [1]; 99.9 µM in [3]; above 100 µM in test [4]; above 100 µM in test [6]; above 100 µM in test [7]; above 100 µM in test [8]. The total growth inhibition concentration (TGI) in test [9] and in test [10] was above 100 µM throughout.

`O=C1c2scnc2-c2nccc3c2c1nc1ccccc13`: the TGI in test [3] is 1.54 µM; in test [4] it was above 100 µM; in test [5], 2.15 µM; in test [6], 4.23 µM; in [7], 1.51 µM; in [9], above 24.8 µM. Besides, the TGI in test [10] was found to be 1.69 µM.

For `N#CCc1[nH]nc2nc(SCc3ccccc3)nc(N3CCCCC3)c12`, the total growth inhibition concentration (TGI) in test [1] turned out to be 35 µM; in test [2], 34.8 µM; in test [3], 37.8 µM; in test [4], 34.6 µM; in test [5] it was 41.5 µM; in [6] it was 28.7 µM. Moreover, the TGI in [7] turned out to be 41.8 µM; in test [8], 34.8 µM; in [9], 36 µM; in test [10] it was 35.7 µM.

For `C[N+]1(C)C2CCC1CC(OC(=O)C(CO)c1ccccc1)C2` (stereo unspecified), the TGI in test [1], in test [2], in test [3], in test [4], in test [5] and in [6] was above 100 µM each time. Further, the total growth inhibition concentration (TGI) in test [7], in [8], in [9] and in [10] was above 100 µM each time.

In the case of `OC1C=C2C3CN(Cc4cc5c(cc43)OCO5)[C@H]2C[C@@H]1O` (stereo partly specified), the total growth inhibition concentration (TGI) in [1] was above 100 µM; in test [2] it was 25 µM; in [3] it was above 100 µM; in test [4] it was above 100 µM; in [5], 33.1 µM; in test [6], above 100 µM. For the same molecule, the TGI in test [7] is above 100 µM; in test [8], 76.1 µM; in test [9], 73.3 µM; in test [10], 9.29 µM.

As for `Cc1c2c(cc3c1[nH]c1ccccc13)C(c1ccc(F)cc1)=NCC2`, the TGI amounted to 5.46 µM in test [1]; 2.77 µM in [3]; 5.93 µM in test [4]; 6.4 µM in test [6]; 4.91 µM in test [7]; 6.94 µM in [8]. Moreover, the TGI in test [9] was found to be 9.62 µM; in test [10], 2.46 µM.
